Among the test systems are A498; ACHN; DLD-1; DMS-114; HOP-92; K562; LOX IMVI; M19-MEL; NCI-H460; RPMI-8226; SF-295; SK-MEL-5; SR; SW-620; UACC-257; UO-31; XF498; HOP-18; NCI-H226; MCF7.
What all share (test): NCI anticancer screen, dose series, 48 h

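All cell lines were grown in 96-well plates and treated with compound for 48 hours. At the GI50, growth is halved.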 Active and inactive are the calls of the source. No stated cut-off is given here; in the data, active = GI50 up to about 1.1 µM and inactive = higher. A value given as a limit tells only on which side of the number the result lay.

As for `COC(=O)C1CCC(=O)N1/C(C)=N/NC(=O)Nc1ccc(Cl)c(Cl)c1` (centres undefined), the GI50 is > 100 µM (inactive) in the assay on A498; 21 µM (inactive) in the assay with ACHN; > 100 µM (inactive) in the assay with DLD-1; > 100 µM (inactive) in the assay with DMS-114; > 100 µM (inactive) with HOP-92; 16.6 µM (inactive) in the assay on K562. Further, the GI50 in the assay with LOX IMVI was 31.5 µM (inactive); in the assay on M19-MEL, > 100 µM (inactive); in the assay with NCI-H460 it was > 100 µM (inactive); with RPMI-8226, > 100 µM (inactive); in the assay with SF-295, > 100 µM (inactive); in the assay with SK-MEL-5 it was > 100 µM (inactive). The GI50 with SR, in the assay on SW-620, in the assay with UACC-257, in the assay with UO-31 and in the assay with XF498 was > 100 µM (inactive) in each case.
`COc1cc(/C=C/C2=C(C#N)C(=O)OC2(C)C)ccc1O`: the GI50 in the assay with A498 is > 100 µM (inactive); in the assay with ACHN, 34.2 µM (inactive); in the assay on DLD-1, 54 µM (inactive); with HOP-18, > 100 µM (inactive); with HOP-92 it was > 100 µM (inactive); with K562, 29.1 µM (inactive). Further, the GI50 in the assay on LOX IMVI was 20.7 µM (inactive); with M19-MEL, > 100 µM (inactive); in the assay with NCI-H226, 37.3 µM (inactive); with NCI-H460, 38.9 µM (inactive); in the assay with RPMI-8226, 20.4 µM (inactive); in the assay with SF-295, 46.1 µM (inactive). Moreover, the GI50 in the assay on SK-MEL-5 is > 100 µM (inactive); in the assay with SR, 14.2 µM (inactive); in the assay on SW-620 it was 35.3 µM (inactive); in the assay with UACC-257, > 100 µM (inactive); in the assay with UO-31, 44.9 µM (inactive).
Turning to `COc1cc(C2c3cc4c(cc3[C@@H](Nc3ccc(N5CCOCC5)cc3)C3COC(=O)[C@H]23)OCO4)cc(OC)c1O` (some centres undefined), the GI50 is 1.01 µM (active) in the assay on A498; 1.55 µM (inactive) with DLD-1; 0.977 µM (active) in the assay on HOP-18; 0.773 µM (active) with HOP-92; 1.39 µM (inactive) in the assay with K562; 1.01 µM (active) with LOX IMVI. Besides, the GI50 with M19-MEL is 1.71 µM (inactive); with MCF7, 0.177 µM (active); with NCI-H226, 0.773 µM (active); with NCI-H460 it was < 0.01 µM (active); in the assay with RPMI-8226, 0.223 µM (active); in the assay on SF-295, 0.296 µM (active). Moreover, the GI50 in the assay with SK-MEL-5 is 1.04 µM (active); in the assay with SW-620 it was 1.5 µM (inactive); with UO-31 it was 1.85 µM (inactive); in the assay with XF498, 0.392 µM (active).
As for `CCCCOP1(=O)C=CC(Cl)=C(C)C1` (centres undefined), the GI50 with ACHN is 19 µM (inactive); in the assay with DMS-114 it was 25.1 µM (inactive); in the assay with HOP-18, 44.5 µM (inactive); in the assay on HOP-92, 23.2 µM (inactive); with K562, 3.28 µM (inactive); in the assay with M19-MEL, 29.7 µM (inactive). In addition, the GI50 in the assay on NCI-H226 is 21.4 µM (inactive); in the assay with NCI-H460 it was 29.8 µM (inactive); in the assay with RPMI-8226, 22.3 µM (inactive); in the assay with SF-295, 18.2 µM (inactive); in the assay with SR, 15.3 µM (inactive); with SW-620, 20.4 µM (inactive). In addition, the GI50 with UACC-257 was > 10 µM (inactive); with UO-31, 41.8 µM (inactive); with XF498 it was 19.2 µM (inactive).
In the case of `CC1C[C@]2(C[C@@H](C)C(=O)O2)OC2CC3(C)C4CCC5C(C)(C)OC(=O)CC[C@@]56C[C@@]46CC[C@]3(C)C12` (some centres undefined), the GI50 in the assay with A498, with ACHN, in the assay on DLD-1, in the assay on DMS-114, in the assay with HOP-18 and in the assay on HOP-92 was > 100 µM (inactive) throughout. In addition, the GI50 in the assay on K562 is 64.9 µM (inactive); in the assay with LOX IMVI, > 100 µM (inactive); with NCI-H226 it was > 100 µM (inactive); in the assay with NCI-H460 it was > 100 µM (inactive); in the assay on RPMI-8226, > 100 µM (inactive); in the assay on SF-295 it was > 100 µM (inactive). In addition, the GI50 with SK-MEL-5, with SR, in the assay on SW-620, with UACC-257 and in the assay with XF498 was > 100 µM (inactive) each time.
With `COc1ccc(C2C(C(=O)O)=C(COC(C)=O)Oc3cc4c(cc32)OCO4)cc1` (centres undefined), the GI50 in the assay on ACHN, with DLD-1, with DMS-114, in the assay with HOP-18, in the assay with HOP-92 and in the assay with K562 was > 100 µM (inactive) in each case. Moreover, the GI50 in the assay on LOX IMVI, with M19-MEL, in the assay on NCI-H460, with RPMI-8226, with SF-295 and in the assay with SK-MEL-5 was > 100 µM (inactive) each time. Besides, the GI50 in the assay on SW-620 is > 100 µM (inactive); in the assay on UACC-257, > 100 µM (inactive); with UO-31, > 100 µM (inactive); with XF498 it was 40.7 µM (inactive).
With `COC(=O)C1=COC2OC3/C(=C\c4ccc(O)c(OC)c4)C(=O)OC34C=CC1C24` (centres undefined), the GI50 in the assay on A498 is 27.7 µM (inactive); in the assay on ACHN, 15.1 µM (inactive); in the assay on DLD-1 it was 18.5 µM (inactive); in the assay on DMS-114, 24.7 µM (inactive); in the assay on HOP-92, 22.5 µM (inactive); in the assay with K562 it was 15.5 µM (inactive). Moreover, the GI50 was 14.2 µM (inactive) in the assay on M19-MEL; 14.4 µM (inactive) with NCI-H226; 17.9 µM (inactive) in the assay on NCI-H460; 26.1 µM (inactive) in the assay with RPMI-8226; 17.2 µM (inactive) in the assay with SF-295; 35.2 µM (inactive) in the assay on SK-MEL-5. Besides, the GI50 is 28.8 µM (inactive) with SR; 20 µM (inactive) with SW-620; 15.9 µM (inactive) with UACC-257; 14.4 µM (inactive) in the assay with UO-31; 3.46 µM (inactive) in the assay on XF498.
In the case of `N#C/C(=C\c1cccc(O)c1O)C(N)=O`, the GI50 with A498 is 74.3 µM (inactive); with ACHN, 26.6 µM (inactive); with DLD-1 it was 45.4 µM (inactive); with DMS-114 it was 29.9 µM (inactive); in the assay on HOP-92, 41.3 µM (inactive); in the assay with K562, 38.6 µM (inactive). The GI50 with M19-MEL is 54.8 µM (inactive); in the assay with NCI-H226 it was 25.3 µM (inactive); in the assay on NCI-H460 it was 29.4 µM (inactive); in the assay on RPMI-8226, 18.3 µM (inactive); in the assay with SF-295, 58.1 µM (inactive); in the assay on SW-620 it was 50.2 µM (inactive). Also, the GI50 is 39.5 µM (inactive) in the assay with UACC-257, 22.7 µM (inactive) with UO-31 and 31.4 µM (inactive) with XF498.
Consider `CCCCCCCCCCCC1=C(O)C(=O)C=C(O)C1=O` [EMBELIN], for which the GI50 in the assay on A498 is 5.75 µM (inactive); in the assay with DLD-1, 8.49 µM (inactive); in the assay with DMS-114, 5.47 µM (inactive); with HOP-18, 4.58 µM (inactive); with HOP-92, 4.09 µM (inactive); with K562, 7.67 µM (inactive). For the same compound, the GI50 in the assay on LOX IMVI is 7.35 µM (inactive); with MCF7, 7.64 µM (inactive); in the assay with NCI-H226, 5.25 µM (inactive); in the assay on NCI-H460, 2.88 µM (inactive); in the assay on RPMI-8226, 3.81 µM (inactive); in the assay with SF-295 it was 6.03 µM (inactive). Moreover, the GI50 was 4.84 µM (inactive) in the assay on SK-MEL-5, 18.3 µM (inactive) in the assay on SW-620, 6.17 µM (inactive) in the assay on UACC-257 and 5.56 µM (inactive) with UO-31.
In the case of `O=C1C2Cc3ccccc3CN2C(=O)N1CN1CCCCC1` (centres undefined), the GI50 in the assay on A498, in the assay on ACHN, with DLD-1, in the assay with DMS-114, in the assay with K562 and with LOX IMVI was > 100 µM (inactive) in each case. For the same compound, the GI50 in the assay on M19-MEL is > 100 µM (inactive); in the assay on NCI-H226, > 100 µM (inactive); with NCI-H460, > 100 µM (inactive); with RPMI-8226 it was 31.1 µM (inactive); in the assay with SF-295 it was > 100 µM (inactive); in the assay with SK-MEL-5 it was > 100 µM (inactive). Further, the GI50 was 97.5 µM (inactive) with SR, 55.6 µM (inactive) in the assay with SW-620, > 100 µM (inactive) in the assay on UO-31 and > 100 µM (inactive) with XF498.
`NC(=O)C1(c2ccccc2)Nc2ccccc2S1` (centres undefined): the GI50 in the assay on ACHN, in the assay with DLD-1, in the assay on DMS-114, in the assay on HOP-18, in the assay on K562 and with LOX IMVI was > 100 µM (inactive) throughout. Also, the GI50 in the assay with M19-MEL, in the assay on NCI-H226, in the assay on NCI-H460, in the assay on RPMI-8226, in the assay on SK-MEL-5 and in the assay on SR was > 100 µM (inactive) in each case. Also, the GI50 in the assay on SW-620, with UO-31 and in the assay with XF498 was > 100 µM (inactive) throughout.
As to `C#CC[C@@]12CC(=O)C[C@@H]1CCC1(C2)OCCO1.C#CC[C@]12CC(=O)CC[C@H]1CC(=O)C2`, the GI50 in the assay with A498 is > 100 µM (inactive); with DLD-1, > 100 µM (inactive); in the assay with HOP-18, 90.6 µM (inactive); in the assay on HOP-92, > 100 µM (inactive); with K562, 59.7 µM (inactive); in the assay with LOX IMVI, > 100 µM (inactive). The GI50 in the assay on M19-MEL, with MCF7, with NCI-H226, in the assay on NCI-H460, in the assay with RPMI-8226 and in the assay on SF-295 was > 100 µM (inactive) in each case. Moreover, the GI50 in the assay on SK-MEL-5 was > 100 µM (inactive); in the assay on SW-620, > 100 µM (inactive); in the assay with UACC-257 it was 90.8 µM (inactive); in the assay with UO-31, > 100 µM (inactive); with XF498, > 100 µM (inactive).

Source of the values: ChEMBL document CHEMBL1201862, “PubChem BioAssay data set” (2004).
